Measured values taken from US3956291A, “7-Thioacetamido cephalosporanic acid derivatives” (American Home Products Corporation, priority 1974, dated 1976).
≈ marks a conversion by molar mass, not a printed value. Read-outs that look alike come from different tables or passages of the source.

Experiments:
Test in all cases: agar serial dilution test, minimum inhibitory concentration
Format in all cases: cell-based
escherichia coli = tested on: escherichia coli
Source text: (§1) The compounds of this invention are useful for the treatment of bacterial infections amenable to treatment by cephalosporins. […] In accordance with the results obtained with the antibacterial compounds of this invention, their usefulness is established in the fields of comparative pharmacology and microbiology for the purpose of inhibiting the growth of undesirable bacterial colonies. […]

bacillus subtilis = conditions: Bacillus subtilis; BA SU strain 6633
Source text: as §1

salmonella paratyphi = conditions: Salmonella enterica, read-out: Minimum Inhibitory Concentration
Source text: as §1

neisseria catarrhalis = tested on: neisseria catarrhalis
Source text: as §1

Staphylococcus aureus = conditions: Staphylococcus aureus
Source text: as §1

proteus vulgaris = tested on: proteus vulgaris
Source text: as §1

klebsiella pneumoniae = tested on: klebsiella pneumoniae
Source text: as §1

herellea species = conditions: HE SP strain 9955
Source text: (§2) The compounds of this invention are useful for the treatment of bacterial infections amenable to treatment by cephalosporins. […] In accordance with the results obtained with the antibacterial compounds of this invention, their usefulness is established in the fields of comparative pharmacology and microbiology for the purpose of inhibiting the growth of undesirable bacterial colonies.
(§3) The nmr spectra described in the following examples pertains to the spectra obtained upon exchanging acidic hydrogens with deuterium and are described in ppm (δ). The small amount of water and/or solvent carried into the products is readily removed by gently heating the material under vacuum. […]

pseudomones aeruginosa = conditions: PS AE strain 10145
Source text: as §2, §3

bordetella brochiseptica = conditions: BO BR strain 4617
Source text: as §1

[1] = NE CA strain 8193, read-out: Minimum Inhibitory Concentration
[2] = PR VU strain 6896, read-out: Minimum Inhibitory Concentration
[3] = KL PN strain 10031, read-out: Minimum Inhibitory Concentration
[4] = read-out: Minimum Inhibitory Concentration

| Compound | MIC (escherichia coli; ES CO strain 9637) [µg/mL] | MIC (bacillus subtilis) [µg/mL] | MIC (salmonella paratyphi) [µg/mL] | MIC (neisseria catarrhalis; [1]) [µg/mL] | MIC (Staphylococcus aureus; ST AU strain 53-180) [µg/mL] | MIC (Staphylococcus aureus; ST AU strain 6538P) [µg/mL] | MIC (Staphylococcus aureus; ST AU strain CHP) [µg/mL] | MIC (Staphylococcus aureus; ST AU strain Smith) [µg/mL] | MIC (proteus vulgaris; [2]) [µg/mL] | MIC (klebsiella pneumoniae; [3]) [µg/mL] | MIC (proteus vulgaris; [4]) [µg/mL] | MIC (herellea species) [µg/mL] | MIC (pseudomones aeruginosa) [µg/mL] | MIC (escherichia coli; ES CO strain 920) [µg/mL] | MIC (bordetella brochiseptica) [µg/mL] | MIC (klebsiella pneumoniae; [4]) [µg/mL] | MIC (neisseria catarrhalis; [4]) [µg/mL] |
| --- | --- | --- | --- | --- | --- | --- | --- | --- | --- | --- | --- | --- | --- | --- | --- | --- | --- |
| COC(=O)CSC(SCC(=O)N[C@@H]1C(=O)N2C(C(=O)O)=C(COC(C)=O)CS[C@H]12)=C(C#N)C(N)=O [Example 3, 7-(2-[2-Carbamoyl-1-(methoxycarbonylmethylthio)-2-cyanoethenylthio]acetamido) cephalosporanic acid] | 62.5 (≈ 115 µM) | 0.122 (≈ 0.224 µM) | 31.3 (≈ 57.5 µM) | 7.81 (≈ 14.3 µM) | 1.95 (≈ 3.58 µM) | 0.488 (≈ 0.896 µM) | 3.9 (≈ 7.16 µM) | 0.488 (≈ 0.896 µM) | 62.5 (≈ 115 µM) | 125 (≈ 230 µM) |  |  |  |  |  |  |  |
| CC(=O)OCC1=C(C(=O)O)N2C(=O)[C@@H](NC(=O)CSC(=NC#N)SCC(=O)O)[C@H]2SC1 [Example 15, 7-[2-[(cyanoimino)(2-hydroxy-2-oxoethylthio)methylthio]acetamido]cephalosporanic acid] |  | 1.95 (≈ 3.99 µM) | 125 (≈ 256 µM) |  |  | 15.6 (≈ 31.9 µM) | 62.5 (≈ 128 µM) | 7.81 (≈ 16 µM) |  | 250 (≈ 512 µM) | 125 (≈ 256 µM) |  |  |  |  |  |  |
| CC(=O)OCC1=C(C(=O)O)N2C(=O)[C@@H](NC(=O)CSC(=NS(C)(=O)=O)SCC#N)[C@H]2SC1 [Example 14, 7-[2-[(cyanomethylthio)(methylsulfonylimino)methylthio]acetamido)cephalosporanic acid] | 125 (≈ 239 µM) | 0.244 (≈ 0.467 µM) | 15.6 (≈ 29.9 µM) | 125 (≈ 239 µM) | 7.81 (≈ 14.9 µM) | 1.95 (≈ 3.73 µM) | 7.81 (≈ 14.9 µM) | 1.95 (≈ 3.73 µM) | 31.3 (≈ 59.9 µM) | 31.3 (≈ 59.9 µM) |  | 250 (≈ 478 µM) | 125 (≈ 239 µM) | 125 (≈ 239 µM) | 62.5 (≈ 120 µM) |  |  |
| CC(=O)OCC1=C(C(=O)O)N2C(=O)[C@@H](NC(=O)CSC(SCC#N)=C(C#N)c3ccccc3)[C@H]2SC1 [Example 8, 7-(2-[2-Cyano-1-(cyanomethylthio)-2-phenylethenylthio]acetamido)cephalosporanic acid] | 25 (≈ 45.9 µM) | 0.031 (≈ 0.0569 µM) | 62.5 (≈ 115 µM) | 3.9 (≈ 7.16 µM) | 0.976 (≈ 1.79 µM) | 0.244 (≈ 0.448 µM) | 0.976 (≈ 1.79 µM) | 0.244 (≈ 0.448 µM) | 250 (≈ 459 µM) |  |  |  |  | 250 (≈ 459 µM) | 250 (≈ 459 µM) | 62.5 (≈ 115 µM) |  |
| C=CCSC(=NC#N)SCC(=O)N[C@@H]1C(=O)N2C(C(=O)O)=C(COC(C)=O)CS[C@H]12 [Example 19, 7-[2-[(cyanoimino)(2-propenylthio)methylthio]acetamido]cephalosporanic acid] | 250 (≈ 531 µM) | 0.488 (≈ 1.04 µM) | 31.3 (≈ 66.5 µM) | 250 (≈ 531 µM) | 3.9 (≈ 8.29 µM) | 1.95 (≈ 4.14 µM) | 7.81 (≈ 16.6 µM) | 1.95 (≈ 4.14 µM) |  | 125 (≈ 266 µM) | 31.3 (≈ 66.5 µM) |  |  | 250 (≈ 531 µM) | 125 (≈ 266 µM) |  |  |
| CC(=O)OCC1=C(C(=O)O)N2C(=O)[C@@H](NC(=O)CSC(=NC#N)SCc3ccccc3)[C@H]2SC1 [Example 10, 7-[2-[ (cyanoimino) (phenylmethylthio)methylthio]acetamido]cephalosporanic acid] | 15.6 (≈ 30 µM) | 0.122 (≈ 0.234 µM) | 3.9 (≈ 7.49 µM) | 62.5 (≈ 120 µM) | 1.95 (≈ 3.75 µM) | 0.976 (≈ 1.87 µM) | 3.9 (≈ 7.49 µM) | 0.976 (≈ 1.87 µM) | 15.6 (≈ 30 µM) | 15.6 (≈ 30 µM) |  |  |  | 62.5 (≈ 120 µM) | 15.6 (≈ 30 µM) |  |  |
| CCOC(=O)CSC(=NC#N)SCC(=O)N[C@@H]1C(=O)N2C(C(=O)O)=C(COC(C)=O)CS[C@H]12 [Example 12, 7-[2-[(cyanoimino)(2-ethoxy-2-oxoethylthio)methylthio]acetamido]cephalosporanic acid] | 250 (≈ 484 µM) | 0.122 (≈ 0.236 µM) | 31.3 (≈ 60.6 µM) | 62.5 (≈ 121 µM) | 1.95 (≈ 3.77 µM) | 0.976 (≈ 1.89 µM) | 3.9 (≈ 7.55 µM) | 0.488 (≈ 0.945 µM) | 62.5 (≈ 121 µM) |  |  |  |  | 250 (≈ 484 µM) | 250 (≈ 484 µM) | 31.3 (≈ 60.6 µM) |  |
| C#CCSC(=NC#N)SCC(=O)N[C@@H]1C(=O)N2C(C(=O)O)=C(COC(C)=O)CS[C@H]12 [Example 17, 7-[2-[(cyanoimino) (2-propynylthio)methylthio]acetamido]cephalosporanic acid] | 31.3 (≈ 66.8 µM) | 0.122 (≈ 0.26 µM) | 7.81 (≈ 16.7 µM) | 125 (≈ 267 µM) | 3.9 (≈ 8.32 µM) | 0.488 (≈ 1.04 µM) | 3.9 (≈ 8.32 µM) | 0.488 (≈ 1.04 µM) | 62.5 (≈ 133 µM) |  |  |  |  | 62.5 (≈ 133 µM) |  | 7.81 (≈ 16.7 µM) |  |
| CC(=O)OCC1=C(C(=O)O)N2C(=O)[C@@H](NC(=O)CSC(=NC#N)SCc3ccc([N+](=O)[O-])cc3)[C@H]2SC1 [Example 13, 7-[2-[(cyanoimino)(4-nitrophenylmethylthio)methylthio]acetamido]cephalosporanic acid] | 250 (≈ 442 µM) | 0.488 (≈ 0.863 µM) | 62.5 (≈ 110 µM) |  | 3.9 (≈ 6.9 µM) | 1.95 (≈ 3.45 µM) | 3.9 (≈ 6.9 µM) | 1.95 (≈ 3.45 µM) |  | 250 (≈ 442 µM) | 62.5 (≈ 110 µM) |  |  |  | 125 (≈ 221 µM) |  | 62.5 (≈ 110 µM) |
